The source of these data is PubChem BioAssay AID2060508 (Molecular Pharmacology Branch, DTP, NCI, 2025).

One may read the viability, T/C as the ratio of treated to control.

The structures appear in SMILES notation. Values joined by “and” are separate entries in the source; they are usually repeats but may differ in a detail not shown here. Equal values may be shown once.
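Also: spheroids exposed to compounds for seven days.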

One assay deals with 454973-116-R2-J3-PDC spheroids, viability, % test/control. Kind of assay: Anticancer human tumor 454973-116-R2-J3-PDC patient-derived pancreatic carcinoma cell line growth inhibition [GQUAD]. To be noted: compound 0.0999 µM; stronger effect = lower value; spheroids with HUVEC and MSC. The source says: DNA G-quadruplex Stabilizer Agents in Combinations in Complex Spheroids
A high-throughput screen of multi-cell type tumor spheroids was designed to identify active combinations of DNA G-quadruplex stabilizer agents and targeted small molecules. Complex spheroids include a stromal component modeled by human endothelial cells (HUVEC) and fibroblasts modeled by human mesenchymal stem cells (MSCs). The concentration ranges selected for each drug and investigational agent were based upon clinically achievable concentrations if the clinical Cmax of the agent was known.
Compounds. The drugs and investigational agents: pidnarulex (CX-5461; NSC782164), APTO-253 (NSC789042), BRACO-19 (NSC847499), peposertib (NSC802822), ceralasertib (NSC780249), elimusertib (NSC800525), camonsertib (NSC841442), AZD-1390 (NSC803789), olaparib (NSC753686), talazoparib (NSC767125), ART-558 (NSC835418), sotorasib (NSC818433), MRTX-1133 (NSC836407), SN-38 (NSC673596), topotecan (NSC609699), etoposide (NSC141540), doxorubicin (NSC123127), gemcitabine (NSC613327), 5-fluorouracil (NSC19893), paclitaxel (NSC125973), vemurafenib (NSC761431), panobinostat (NSC761190), R-306465 (JNJ-16241199; NSC773264), adavosertib (NSC754352), TP-3654 (NSC805149), carboplatin (NSC241240), KSQ-4279 (NSC840948), and staurosporine (NSC755774) were obtained from the National Cancer Institute (NCI) Developmental Therapeutics Program Chemical Repository (34). The FDA-approved anticancer drug set is available from the NCI Developmental Therapeutics Program. […] The stock solutions were prepared in dimethyl sulfoxide (DMSO, Sigma-Aldrich, St. Louis, MO, cat. D2650) at 800-fold the tested concentration and stored at -70 degrees C prior to their use. All drugs and investigational agents were tested over a range starting from a high concentration at or near the clinical Cmax and decreasing in half-log increments. If the clinical Cmax for an agent had not been determined, the highest concentration tested was 10 microM.
2.3 Cell Culture. All cells were maintained in an incubator at 37 degrees C and 5% CO2 with 95% humidity. The PDC lines were cultured according to standard operating procedures established by the NCI PDMR. All PDCs were thawed and cultured in Matrigel-coated flasks prepared with a working solution of 1X Ham's F-12 nutrient mix, without supplementation (Invitrogen, cat. 11765054), 100 U/mL penicillin-streptomycin (Invitrogen, cat. 15140122), and 2.5% Matrigel (Corning Inc., cat. 354248) for the first three passages. The 857933-349-R-J2-PDC line was cultured in 6C/Colon 1B media, which includes advanced DMEM/F-12 (Thermo Fisher Scientific, cat. 12634028), 10 mM HEPES (Thermo Fisher Scientific, cat. 15630080), 1X GlutaMAX supplement (Thermo Fisher Scientific, cat. 35050061), 0.1 mg/mL primocin (InvivoGen, cat. ant-pm-2), 10% defined fetal bovine serum, heat inactivated (HyClone Laboratories Inc., cat. SH30070.03HI), 50% L-WRN conditioned media (ATCC, cat. CRL-3276), 1.25 mM N-Acetyl-L-cysteine (Sigma-Aldrich, cat. A9165), 10 mM nicotinamide (Sigma-Aldrich, cat. N0636), 1X B-27 supplement (Thermo Fisher Scientific, cat. 17504044), 1X N-2 supplement (Thermo Fisher Scientific, cat. 17502048), 10 microM Y-27632 dihydrochloride (Tocris Bioscience, cat. 1254), and 50 ng/mL human EGF recombinant protein (Thermo Fisher Scientific, cat. PHG0311). The 485176-168-R4-J1-PDC line was cultured in Panc media, which includes all 6C/Colon 1B media components plus 100 ng/mL human FGF-10 (Thermo Fisher Scientific, cat. 100-26), 500 nM SB-431542 (Selleckchem, cat. S1067), and gastrin (Tocris, cat. 3006).
[…]
As to `Cc1[nH]c2ccccc2c1CCNCc1ccc(/C=C/C(=O)NO)cc1`, the viability, T/C is 37.9% and 37.3% and 32%.
Still for that read-out and setting: the result for `Cn1ncnc1[C@H]1c2n[nH]c(=O)c3cc(F)cc(c23)N[C@@H]1c1ccc(F)cc1` reads 87.5% and 93.9% and 86.8%.

The same assay, now with this note: compound 0.1 µM; stronger effect = lower value; spheroids with HUVEC and MSC.
`C=CC(=O)N1CCN(c2nc(=O)n(-c3c(C)ccnc3C(C)C)c3nc(-c4c(O)cccc4F)c(F)cc23)C(C)C1` (stereo not drawn): the viability, T/C was 108% and 100% and 98.3%.
Regarding `CC(C)n1c(=O)n(C)c2cnc3cc(F)c(-c4ccc(OCCCN5CCCCC5)nc4)cc3c21`, the viability, T/C is 103% and 98.6% and 97.8%.
In the case of `CC1COCCN1c1cc(-c2ccnn2C)c2ccnc(-c3ccn[nH]3)c2n1` (stereo not drawn), the viability, T/C is 60.6% and 68% and 55.6%.
The same measure, in the same setting: the result for `CC1COCCN1c1cc(C2(O)CC3CCC(C2)O3)c2cnn(-c3ccn[nH]3)c2n1` (stereo not drawn) reads 58.4% and 59.4% and 64.2%.
For `CC1COCCN1c1cc(C2(S(C)(=N)=O)CC2)nc(-c2ccnc3[nH]ccc23)n1` (stereo not drawn), the viability, T/C was 108% (2×) and 109%.
Same read-out and setting: the result for `CN(C)c1ccc(Nc2c3ccc(NC(=O)CCN4CCCC4)cc3nc3cc(NC(=O)CCN4CCCC4)ccc23)cc1` reads 106% [middle of 12 runs].
Turning to `COc1cc(C2c3cc4c(cc3C(OC3OC5COC(C)OC5C(O)C3O)C3COC(=O)C23)OCO4)cc(OC)c1O` (stereo not drawn), the viability, T/C was 94.7% and 92.3% and 78.7%.
Consider `COc1ccc([C@@H](O)c2cc(-c3ncnc4cc(N5CCOCC5)ccc34)c(F)cc2Cl)nn1`, for which the viability, T/C was 94.2% and 93% and 93.8%.
The same measure, in the same setting: the result for `COc1cccc2c1C(=O)c1c(O)c3c(c(O)c1C2=O)CC(O)(C(=O)CO)CC3OC1CC(N)C(O)C(C)O1` (stereo not drawn) reads 63.4% and 69.4% and 65.3%.
On to `Cc1[nH]c2ccc(F)cc2c1-c1nc2c3cccnc3c3ncccc3c2[nH]1`, for which the viability, T/C was 110% [middle of 12 runs].
With `Cc1cccc(N(C)C(=O)C2C(O)CCN2c2nc(C)cc(C(F)(F)F)c2C#N)c1` (stereo not drawn), the viability, T/C was 98.7% and 101% and 97.4%.
Same read-out and setting: next, `Cc1cnc(CNC(=O)c2c(=O)c3ccc(N4CCCN(C)CC4)nc3n3c2sc2ccccc23)cn1`: 82.4% [middle of 12 runs]; `Nc1ccn(C2OC(CO)C(O)C2(F)F)c(=O)n1` (stereo not drawn): 16.1% and 13.3% and 15.5%; `O=C(c1cc(Cc2n[nH]c(=O)c3ccccc23)ccc1F)N1CCN(C(=O)C2CC2)CC1`: 90.7% and 97.5% and 95.4%.
As for `O=c1[nH]cc(F)c(=O)[nH]1`, the viability, T/C is 93.5% and 97.6% and 87.4%.

Staying with this assay, now noted: compound 0.316 µM; stronger effect = lower value; spheroids with HUVEC and MSC.
In the case of `C=CC(=O)N1CCN(c2nc(=O)n(-c3c(C)ccnc3C(C)C)c3nc(-c4c(O)cccc4F)c(F)cc23)C(C)C1` (stereo not drawn), the viability, T/C is 108% and 105% and 116%.
Regarding `CC(C)n1c(=O)n(C)c2cnc3cc(F)c(-c4ccc(OCCCN5CCCCC5)nc4)cc3c21`, the viability, T/C was 97.7% and 102% and 92.9%.
Still for that read-out and setting: the result for `CC1COCCN1c1cc(-c2ccnn2C)c2ccnc(-c3ccn[nH]3)c2n1` (stereo not drawn) reads 29.6% and 31.4% and 26.2%; that for `CC1COCCN1c1cc(C2(O)CC3CCC(C2)O3)c2cnn(-c3ccn[nH]3)c2n1` (stereo not drawn), 26.5% and 26.1% and 27.2%.
`CC1COCCN1c1cc(C2(S(C)(=N)=O)CC2)nc(-c2ccnc3[nH]ccc23)n1` (stereo not drawn): the viability, T/C was 106% (2×) and 113%.
The same measure, in the same setting: next, `CC[C@@]1(O)C(=O)OCc2c1cc1n(c2=O)Cc2cc3c(CN(C)C)c(O)ccc3nc2-1`: 22% and 21.9% and 23.2%; `CCc1c2c(nc3ccc(O)cc13)-c1cc3c(c(=O)n1C2)COC(=O)[C@]3(O)CC`: 4.31% and 4.99% and 4.01%; `CN(C)c1ccc(Nc2c3ccc(NC(=O)CCN4CCCC4)cc3nc3cc(NC(=O)CCN4CCCC4)ccc23)cc1`: 103% [middle of 12 runs].
Same read-out and setting: next, `COc1cc(C2c3cc4c(cc3C(OC3OC5COC(C)OC5C(O)C3O)C3COC(=O)C23)OCO4)cc(OC)c1O` (stereo not drawn): 85.6% and 89.4% and 87.1%; `COc1ccc([C@@H](O)c2cc(-c3ncnc4cc(N5CCOCC5)ccc34)c(F)cc2Cl)nn1`: 103% and 91.3% and 98.6%; `COc1cccc2c1C(=O)c1c(O)c3c(c(O)c1C2=O)CC(O)(C(=O)CO)CC3OC1CC(N)C(O)C(C)O1` (stereo not drawn): 24.1% and 34.5% and 26.2%.
The same measure, in the same setting: next, `Cc1[nH]c2ccc(F)cc2c1-c1nc2c3cccnc3c3ncccc3c2[nH]1`: 106% [middle of 12 runs]; `Cc1[nH]c2ccccc2c1CCNCc1ccc(/C=C/C(=O)NO)cc1`: 6.04% and 6.14% and 2.02%; `Cc1cccc(N(C)C(=O)C2C(O)CCN2c2nc(C)cc(C(F)(F)F)c2C#N)c1` (stereo not drawn): 105% and 106% (2×).
As to `Cc1cnc(CNC(=O)c2c(=O)c3ccc(N4CCCN(C)CC4)nc3n3c2sc2ccccc23)cn1`, the viability, T/C was 74% [middle of 12 runs].
In the case of `Cn1ncnc1[C@H]1c2n[nH]c(=O)c3cc(F)cc(c23)N[C@@H]1c1ccc(F)cc1`, the viability, T/C is 82.2% and 77.3% and 78.9%.
